From patent US5231100A, “Antineoplastic modified imidazoacridines” (British Technology Group Limited, priority 1991, dated 1993)
Like-named read-outs stand apart in the source and are kept apart here.

Experiments:
[1] = system: mouse L1210 leukemia cells; assay: In vitro cytotoxicity, 48 h growth inhibition (cell protein content); type: cell-based
Method: The mouse L1210 leukemia cells (RPM1, USA) are grown in RPM1 1640 medium supplemented with 5% fetal calf serum and penicillin (1,000,000 units litre) plus streptomycin (100 mg/litre) in controlled air-5% CO2 humidified atmosphere at 37° C. L1210 mouse leukemia cells are seeded at a density of 5.10^4 cells/ml. The tested compounds after being dissolved in 50% ethanol are added, at four different concentrations, to the cell suspensions. […] 1974, 24, 1971.

P388 lymphotic leukemia = assay: In vivo antileukemic evaluation, P388 leukemia in BDF1 mice
Method: BDF1 mice are injected ip with 10^6 P388 lymphotic leukemia cells on day O and treated ip on days 1-5 in accordance with the protocols described by the National Cancer Institute: Geran, R. I.; Greenberg, R. H.; MacDonald, M. M.; Schumacher, A. M.; Abbot, B. J. Cancer Chemother, Re., Part 3, 1972,3,1. The mean survival time (MST) for each treatment group (eight mice) is calculated and the percent of T/C was determined by using the following formula: % T/C=(MST treated)/(MST control) 100.

[2] = L1210 cells, 48 h, 50% growth inhibition, read-out: in vitro IC50
[3] = L1210 cells, 48 h, 50% growth inhibition, read-out: in vitro IC50 (μg/ml)
[4] = P388 ip, treated ip days 1-5, at opt dose, first or only value
[5] = P388 ip, treated ip days 1-5, at opt dose, repeated independent multidose assay (footnote c)

Structure (SMILES)	IC50 [1, 2] [µM]	IC50 [1, 3] [µg/mL]	% T/C (mean survival time treated/control) (P388 lymphotic leukemia; [4]) [%]	% T/C (mean survival time treated/control), second value (P388 lymphotic leukemia; [5]) [%]	IC50 ([1]; L1210, 48 h, read-out: in vitro IC50 (μM)) [µM]	IC50 ([1]; L1210, 48 h, read-out: in vitro IC50 (μg/ml)) [µg/mL]	% T/C (mean survival time treated/control) (P388 lymphotic leukemia; ip) [%]	% T/C (mean survival time treated/control), second value (P388 lymphotic leukemia; ip) [%]
CCN(CC)CCNc1ccc2ncn3c4ccc(OC)cc4c(=O)c1c23.Cl.Cl [Example 1, 5-[[2-(Diethylamino)ethyl]amino]-8-methoxyimidazo[4,5,1-de] acridin-6-one Dihydrochloride]	1.8	0.78	183	209				
COc1ccc2c(c1)c(=O)c1c(NCCN(C)C)ccc3ncn2c31 [Example 2]			177	136	1.6	0.65		
COc1ccc2c(c1)c(=O)c1c(NCCN(C)C)ccc3nc(C)n2c31 [Example 3]	0.77	0.34	127					
CCN(CC)CCNc1ccc2nc(C)n3c4ccc(OC)cc4c(=O)c1c23 [Example 4]	1.55	0.7	136	120				
COc1ccc2c(c1)c(=O)c1c(NCCCN(C)C)ccc3ncn2c31 [Example 5]	8.25	3.5	164					
COc1ccc2c(c1)c(=O)c1c(NCCCN(C)C)ccc3nc(C)n2c31 [Example 6]	3.2	1.4	136					
CCN(CC)CCCNc1ccc2ncn3c4ccc(OC)cc4c(=O)c1c23 [Example 7]	2.5	1.1	142					
CCN(CC)CCCNc1ccc2nc(C)n3c4ccc(OC)cc4c(=O)c1c23 [Example 8]	1.4	0.7	108					
CN(C)CCNc1ccc2ncn3c4ccc(O)cc4c(=O)c1c23 [Example 9]	0.048	0.02	210	210				
Cc1nc2ccc(NCCN(C)C)c3c(=O)c4cc(O)ccc4n1c23 [Example 10]	0.135	0.06	200	250				
CCN(CC)CCNc1ccc2ncn3c4ccc(O)cc4c(=O)c1c23 [Example 11]	0.031	0.013					211	175
CCN(CC)CCNc1ccc2nc(C)n3c4ccc(O)cc4c(=O)c1c23 [Example 12]	0.25	0.11	280	290				
CN(C)CCCNc1ccc2ncn3c4ccc(O)cc4c(=O)c1c23 [Example 13]	0.034	0.014	183					
Cc1nc2ccc(NCCCN(C)C)c3c(=O)c4cc(O)ccc4n1c23 [Example 14]	0.23	0.1	255					
CCN(CC)CCCNc1ccc2ncn3c4ccc(O)cc4c(=O)c1c23 [Example 15]	0.18	0.08	309	230				
CCN(CC)CCCNc1ccc2nc(C)n3c4ccc(O)cc4c(=O)c1c23 [Example 16]	0.89	0.4	150	155				
